Assays:
Trypanosoma cruzi = experiment: Antimicrobial activity against Trypanosoma cruzi; assay type: functional, organism-based; settings: Trypanosoma cruzi
Trypanosoma brucei = experiment: Antimicrobial activity against Trypanosoma brucei; assay type: functional, organism-based
Plasmodium falciparum = experiment: Antimicrobial activity against Plasmodium falciparum; assay type: functional, organism-based
Leishmania major = experiment: Antimicrobial activity against Leishmania major; assay type: functional, organism-based
Leishmania amazonensis = experiment: Antimicrobial activity against Leishmania amazonensis; assay type: functional, organism-based
Leishmania mexicana = experiment: Antimicrobial activity against Leishmania mexicana; assay type: functional, organism-based
Leishmania = experiment: Antimicrobial activity against Leishmania; assay type: functional
Cryptosporidium parvum = experiment: Antimicrobial activity against Cryptosporidium parvum; assay type: functional, organism-based
Leishmania donovani = experiment: Antimicrobial activity against Leishmania donovani; assay type: functional, organism-based

Row | SMILES | IC50 (Trypanosoma cruzi) [µM] | IC50 (Trypanosoma brucei) [µM] | also measured
1 | C[C@]12CC[C@H](O)C[C@@H]1CC[C@@H]1[C@@H]2CC[C@@]2(C)[C@H]1CC[C@@H]2[C@@](C)(O)c1cccnc1 | 50 |  | IC50 (Leishmania major): 100 µM
2 | C[C@]12CC[C@H](O)C[C@@H]1CC[C@@H]1[C@@H]2CC[C@@]2(C)[C@H]1CC[C@@H]2[C@@](C)(O)c1ccncc1Cl | 1 |  | IC50 (Leishmania amazonensis): 1 µM; IC50 (Leishmania major): 8 µM
3 | CCNC1(C)CC(C)(C)CC(C)(C)C1 |  | 6 | 
4 | CCCC1CC(C)(C)CC(C)(N)C1 (centres undefined) |  | 3 | 
5 | CCCC1(CCC)CC(C)(C)CC(C)(N)C1 (centres undefined) |  | 1 | 
6 | CCCC1(N)CC(C)(C)CC(C)(C)C1 |  | 6 | 
7 | CCCCC12CC3CC(C1)CC(NC)(C3)C2 |  | 2 | 
8 | C[C@]12CC[C@H](O)C[C@@H]1CC[C@@H]1[C@@H]2CC[C@@]2(C)[C@H]1CC[C@@H]2[C@@](C)(O)C1CCCNC1 (some centres undefined) | 23 |  | IC50 (Leishmania major): 13 µM
9 | N=C(N)c1cccc(C(=N)N)c1-c1cc2ccccc2[nH]1 |  |  | IC50 (Leishmania mexicana): 3 µM
10 | N=C(N)c1ccc(OCCCOc2ccc(C(=N)N)cc2)cc1 [PROPAMIDINE] |  |  | IC50 (Leishmania mexicana): 10 µM
11 | CCCC1(C)CC(C)(C)CC(C)(N)C1 (centres undefined) |  | 2 | 
12 | NCCCC12CC3CC(CC(C3)C1)C2 |  | 1 | 
13 | CNC12CC3CC(C1)CC(C(C)C)(C3)C2 |  | 6 | 
14 | C=CC(C)(C)c1cc(/C=C/C(=O)c2ccc(O)cc2)c(OC)cc1O [LICOAGROCHACONE A] |  |  | IC50 (Leishmania major): 14 µM
15 | CN1CCN(C)C1c1ccc(N2CCN(c3ccc(C4N(C)CCN4C)cc3)CC2)cc1 |  |  | IC50 (Plasmodium falciparum): 1 µM; IC50 (Leishmania): 100 µM
16 | N=C(N)c1ccc(/C=C/c2ccc(C(=N)N)cc2)cc1 [STILBAMIDINE] |  |  | IC50 (Leishmania mexicana): 9 µM
17 | CCC(=O)N1CCCCC1[C@](C)(O)[C@H]1CC[C@H]2[C@@H]3CC[C@H]4C[C@@H](O)CC[C@]4(C)[C@H]3CC[C@@]21C (some centres undefined) | 65 |  | IC50 (Leishmania major): 54 µM
18 | C[C@]12CC[C@H](O)C[C@@H]1CC[C@@H]1[C@@H]2CC[C@@]2(C)[C@H]1CC[C@@H]2[C@@](C)(O)c1ccncc1 | 1 |  | IC50 (Leishmania amazonensis): 1 µM; IC50 (Leishmania major): 12 µM
19 | C[C@]12CC[C@H](O)C[C@@H]1CC[C@@H]1[C@@H]2CC[C@@]2(C)[C@H]1CC[C@@H]2[C@@](C)(O)c1ccccn1 | 1 |  | IC50 (Leishmania amazonensis): 3 µM; IC50 (Leishmania major): 100 µM
20 | COc1ccc(OC)c(Cc2sc3nc(N)nc(N)c3c2C)c1 |  |  | IC50 (Cryptosporidium parvum): 1 µM
21 | N=C(N)c1ccc(OCCCCCOc2ccc(C(=N)N)cc2)cc1 [PENTAMIDINE] |  |  | IC50 (Leishmania mexicana): 1 µM; IC50 (Leishmania donovani): 1 µM
22 | C(=N\Nc1ccccc1)/c1ccc(N2CCN(c3ccc(/C=N/Nc4ccccc4)cc3)CC2)cc1 |  |  | IC50 (Leishmania): 34 µM

Now from value to compound, other results behind:

Row | IC50 (Trypanosoma cruzi) [µM] | IC50 (Trypanosoma brucei) [µM] | SMILES | also measured
23 | 32 | 32 | Cn1c2nc3ccc(C#N)cc3c-2cc2cc(C(F)(F)F)ccc21 | 
24 | 32 | 32 | Fc1ccc2[nH]c3nc4ccccc4c-3cc2c1 | IC50 (Plasmodium falciparum): 32 µM
25 | 32 | 17 | Cn1c2nc3ccccc3c-2cc2ccc(C(F)(F)F)cc21 | IC50 (Plasmodium falciparum): 16 µM
26 |  | 1 | Cn1c2nc3ccccc3c-2cc2cc(Cl)ccc21 | 
27 | 17 | 9 | Cn1c2nc3ccccc3c-2cc2ccc(Cl)cc21 | IC50 (Plasmodium falciparum): 5 µM
28 |  | 1 | CSc1ccc2c(c1)cc1c3ccccc3nc-1n2C | 
29 | 32 | 32 | Clc1ccc2[nH]c3nc4ccccc4c-3cc2c1 | IC50 (Plasmodium falciparum): 32 µM
30 |  | 1 | COc1cccc2c1cc1c3ccccc3nc-1n2C | 
31 |  | 32 | Cn1c2nc3ccc(C#N)cc3c-2cc2ccccc21 | IC50 (Plasmodium falciparum): 32 µM
32 |  | 1 | Cn1c2nc3ccccc3c-2cc2cc([N+](=O)[O-])ccc21 | 
33 |  | 32 | Clc1cc(Cl)c2[nH]c3nc4ccccc4c-3cc2c1 | 
34 |  | 32 | COc1ccc2[nH]c3nc4ccccc4c-3cc2c1 | IC50 (Plasmodium falciparum): 32 µM
35 | 32 | 27 | Cn1c2nc3ccccc3c-2cc2ccc(Br)cc21 | IC50 (Plasmodium falciparum): 30 µM
